Assay results taken from patent US20210130417A1, “SYSTEMS AND METHODS FOR DESIGNING SYNTHETIC ANTIMICROBIAL PEPTIDES” (University of Notre Dame du Lac, priority 2017, published 2021).
Values after ≈ are worked out from the molar mass of the structure shown. Residues, ends and D or L forms follow the SMILES beside them.

How the values were obtained:
E. coli BL-21 = format: cell-based, Escherichia coli
Description: The E. coli, P. aeruginosa, and P. syringae bacterial strains were routinely grown in LB broth (EMD Chemicals, Gibbstown, N.J.). […] All other bacteria were grown at 37° C. with agitation.
Overnight bacterial cultures were diluted to an OD of 0.01. μL of diluted culture and 10 μL of 10× peptide or vehicle were added to the wells of a 96-well microtiter plate for a final 1× concentration. Bacteria were grown in desired growth conditions in a Synergy H1 Microplate Reader (Biotek, Winooski, Vt.). For MIC, serial two-fold dilutions of the peptides were used. MIC was determined as the concentration of peptide that prevented overnight growth as indicated by OD 600.

[1] = tested on: sheep red blood cells (RBCs)
Description: For hemolysis assays, 100 μL of sheep red blood cells (RBCs) were washed three times in cold PBS (Thermo Fischer). Washed cells were resuspended in 25 mL of PBS. Triton, PBS, or peptide in 10% DMSO/PBS were added to 180 μL of resuspended RBCs and incubated at 37° C. for 1 h. Samples were read at 450 nm. Data was expressed as percent hemolysis by relativizing to the Triton and PBS controls.

[2] = tested on: Pseudomonas aeruginosa PAO1
From the text: (§1) E. coli BL-21 frozen stock culture was purchased from Thermo Fischer. Pseudomonas aeruginosa PAO1 frozen stock culture was obtained from the Shrout Laboratory at the University of Notre Dame. Pseudomonas syringae frozen stock culture was obtained from the Innes Laboratory at Indiana University. Xanthomonas axonopodis pathovar Starr and Garces pathovar phaseoli (ATCC 9563) frozen stock culture was purchased from the ATCC. Streptococcus pyogenes M1T1 frozen stock culture was obtained from the lab of Dr. Victor Nizet, University of California San Diego. A methicillin resistant Staphylococcus aureus JKD frozen stock culture was obtained from the lab of Dr. Timothy Stinear, University of Melbourne.
(§2) The E. coli, P. aeruginosa, and P. syringae bacterial strains were routinely grown in LB broth (EMD Chemicals, Gibbstown, N.J.). S. aureus and S. pyogenes were routinely grown in Todd Hewitt broth (Neogen Corporation, Lansing, Mich.). X. axonopodis was routinely grown in Nutrient Broth (Sigma-Aldrich Co., St. Louis, Mo.). P. syringae and X. axonopodis were grown at room temperature without agitation. All other bacteria were grown at 37° C. with agitation.
(§3) Overnight bacterial cultures were diluted to an OD of 0.01. […] and 10 μL of 10× peptide or vehicle were added to the wells of a 96-well microtiter plate for a final 1× concentration. Bacteria were grown in desired growth conditions in a Synergy H1 Microplate Reader (Biotek, Winooski, Vt.). For MIC, serial two-fold dilutions of the peptides were used. MIC was determined as the concentration of peptide that prevented overnight growth as indicated by OD 600. For peptide screening, 8 μM or 4 μM peptide was screened against various bacteria. Peptides that inhibited overnight growth were selected for further study.

[3] = tested on: Streptococcus pyogenes M1T1
From the text: as §1, §2, §3

HaCaT cells = experiment: Ethidium homodimer cytotoxicity assay; format: cell-based, human
Description: Medium was aspirated, and cells were washed with PBS. […] Cells were incubated with peptide for 16 h. Medium was aspirated, and cells were washed with PBS. […] The fluorescence was read again. […] Washed cells were resuspended in 25 mL of PBS. […] Samples were read at 450 nm.

Row | Compound | MIC E. coli (E. coli BL-21) [µM] | hemolysis of library peptides ([1]; compared to the PBS control) | MIC P. aeruginosa [2] [µM] | MIC S. pyogenes [3] [µM] | hemolytic activity ([1]; at the concentrations tested) | cytotoxicity, dose dependence (HaCaT cells; HaCaT cells treated for 16 h, up to 32 μM) | cytotoxicity at the MIC for X. axonopodis (HaCaT cells; HaCaT cells, 16 h, 8 μM peptide) | percent of cytotoxicity (HaCaT cells; HaCaT cells, 16 h, 32 μM peptide (highest dose), vehicle control 17%) [%]
1 | CC[C@H](C)[C@H](NC(=O)[C@H](CCCCN)NC(=O)[C@H](CC(N)=O)NC(=O)[C@H](CCCCN)NC(=O)[C@H](CC(C)C)NC(=O)[C@H](Cc1ccc(O)cc1)NC(=O)[C@H](CCC(N)=O)NC(=O)[C@H](CCCNC(=N)N)NC(=O)[C@@H](NC(=O)[C@@H](NC(=O)[C@H](CCCCN)NC(=O)[C@H](CCCCN)NC(=O)CNC(=O)[C@H](C)N)[C@@H](C)O)[C@@H](C)CC)C(=O)N[C@@H](CCCCN)C(=O)N[C@@H](CCCCN)C(=O)N[C@@H](CCCCN)C(=O)N[C@@H](Cc1c[nH]c2ccccc12)C(=O)N[C@@H](CCCNC(=N)N)C(=O)N[C@@H](CCCCN)C(=O)N[C@@H](C)C(=O)N[C@H](C(=O)N[C@H](C(=O)N[C@@H](C)C(=O)N[C@@H](Cc1c[nH]c2ccccc12)C(=O)O)[C@@H](C)CC)C(C)C [Peptide 52] (H-AGKKTIRQYLKNKIKKKWRKAVIAW-OH) | 8 (≈ 24.5 µg/mL) | low levels of hemolysis at higher concentrations | 10 | 8 | – | – | – | –
2 | CC[C@H](C)[C@H](NC(=O)[C@H](CC(C)C)NC(=O)[C@H](CO)NC(=O)[C@@H](N)CC(C)C)C(=O)N[C@@H](C)C(=O)N[C@@H](C)C(=O)N[C@@H](C)C(=O)NCC(=O)N[C@@H](CCCCN)C(=O)N[C@@H](CCC(=O)O)C(=O)N[C@H](C(=O)N[C@H](C(=O)N[C@@H](CCCNC(=N)N)C(=O)N[C@@H](CCC(N)=O)C(=O)N[C@@H](Cc1ccc(O)cc1)C(=O)N[C@@H](CC(C)C)C(=O)N[C@@H](CCCCN)C(=O)N[C@@H](CC(N)=O)C(=O)N[C@@H](CCC(=O)O)C(=O)N[C@H](C(=O)N[C@@H](CCCCN)C(=O)N[C@@H](CCCCN)C(=O)N[C@@H](CCCCN)C(=O)NCC(=O)N[C@@H](CCCNC(=N)N)C(=O)N[C@@H](CCCCN)C(=O)N[C@@H](C)C(=O)N[C@H](C(=O)N[C@H](C(=O)N[C@@H](C)C(=O)N[C@@H](Cc1c[nH]c2ccccc12)C(=O)O)[C@@H](C)CC)C(C)C)[C@@H](C)CC)[C@@H](C)CC)[C@@H](C)O [syn-safencin] (H-LSLIAAAGKETIRQYLKNEIKKKGRKAVIAW-OH) | – | – | – | – | mild hemolytic activity | slight dose-dependent increase in cytotoxicity | no significant increase in cytotoxicity | ~25
